Data: US9994515B2, “Aryl naphthyl methanone oxime(s) and process for preparation thereof” (Council of Scientific & Industrial Research, priority 2013, dated 2018)
Structures can show the parent of a compound that is named as a salt.

Assays:
DLD1 = assay: Sulphorhodamine B assay in DLD1 colon cancer cells; assay type: cell-based; details: Homo sapiens, DLD-1; SRB assay
SW620 = assay: Sulphorhodamine B assay in SW620 colon cancer cells; assay type: cell-based; details: Homo sapiens, SW-620; SRB assay
[1] = tested on: CD133+ DLD1 colon cancer cells; assay: CD133+ colon cancer stem cell population by flow cytometry; assay type: cell-based; details: 20 uM, 24 h, vehicle 15.30%
Method: FIG. 9. Centans reduces CD133+ colon cancer stem cells with a higher efficacy than salinomycin. DLD1 colon cancer cells were treated with indicated compounds for 24h following which the CD133+ population was assessed by flow cytometry using CD133 antibody or relevant isotype control antibody (BD biosciences) in a Becton Dickinson FACS Calibur. Numbers in the dot plot represent % CD133+ cells.

HCT116 = assay: Sulphorhodamine B assay in HCT116 colon cancer cells; assay type: cell-based; details: Homo sapiens, HCT-116; SRB assay
Colo205 = assay: Sulphorhodamine B assay in Colo205 colon cancer cells; assay type: cell-based; details: Homo sapiens, COLO 205; SRB assay
HL60 = assay: MTT cytotoxicity assay in HL-60 cells; assay type: cell-based; details: Homo sapiens
Ishikawa = assay: MTT assay in Ishikawa endometrial adenocarcinoma cells; assay type: cell-based; details: Homo sapiens, Ishikawa, Table 6, 48 h, 10 point dose response
K562 = assay: MTT cytotoxicity assay in K562 cells; assay type: cell-based; details: Homo sapiens
U937 = assay: Cytotoxicity in U937 cells; assay type: cell-based; details: Homo sapiens, U-937, Table 2
MCF-7 = assay: MTT assay in MCF-7 breast tumor cells; assay type: cell-based; details: Homo sapiens, MCF7, Table 6, 48 h, 10 point dose response
DU-145 = assay: MTT assay in DU-145 prostate tumor cells; assay type: cell-based; details: Homo sapiens, DU-145, Table 6, 48 h, 10 point dose response
NIH3T3 = assay: MTT cytotoxicity assay in NIH3T3 fibroblasts; assay type: cell-based, mouse; details: Mus musculus
Method: (§1) To consider a molecule as a candidate compound in cancer drug therapy, the test compound must have specific cytotoxicity towards the cancer cells without affecting normal cell growth. Therefore, all active compounds were assessed for toxicity in non-cancer cell-lines: mouse fibroblast cell line (NIH3T3) and monkey kidney epithelial cells (Vero). […] Therefore, based on safety index ([…]), 5d [Centans; based on IUPAC name prefixed with Central Drug Research Institute's signature (Cent)] was selected as a lead compound.

Kasumi 1 = assay: Cytotoxicity in Kasumi 1 cells; assay type: cell-based; details: Homo sapiens, Kasumi 1, Table 2
Vero = assay: Cytotoxicity in Vero kidney epithelial cells; assay type: cell-based, monkey; details: Primates, Vero; Table 2; normal cell line
Method: as §1

MDA-MB231 = assay: MTT assay in MDA-MB-231 breast tumor cells; assay type: cell-based; details: Homo sapiens, MDA-MB-231, Table 6, 48 h, 10 point dose response
[2] = HL-60, 48 h, Table 1, MTT assay after 48 h treatment
[3] = K562, 48 h, Table 1, MTT assay after 48 h treatment
[4] = NIH3T3, 48 h, Table 1, MTT assay after 48 h treatment
[5] = NIH3T3, Table 2, normal cell line

| IC50 (DLD1) [µM] | IC50 (SW620) [µM] | IC50 (HCT116) [µM] | IC50 (Colo205) [µM] | IC50 (Ishikawa) [µM] | IC50 (MCF-7) [µM] | IC50 (DU-145) [µM] | IC50 (MDA-MB231) [µM] | Structure (SMILES) | CD133+ population after treatment (minus isotype control) [1] | IC50 (HL60; [2]) [µM] | IC50 (HL60; HL-60, Table 2) [µM] | IC50 (K562; [3]) [µM] | IC50 (K562; K562, Table 2) [µM] | IC50 (U937) [µM] | IC50 (NIH3T3; [4]) [µM] | IC50 (NIH3T3; [5]) [µM] | IC50 (Kasumi 1) [µM] | IC50 (Vero) [µM] |
| --- | --- | --- | --- | --- | --- | --- | --- | --- | --- | --- | --- | --- | --- | --- | --- | --- | --- | --- |
| 16.4 | > 50 | > 50 | 38.1 |  |  |  |  | O=c1[nH]cc(F)c(=O)[nH]1 [Compound 5-FU, 5-fluoro uracil, reference compound] | no effect |  |  |  |  |  |  |  |  |  |
|  |  |  |  | 10 | 13.5 | 10 | 8.8 | CSc1ccc(/C(=N/OCCN2CCCCC2)c2cccc3ccccc23)cc1 [Compound 5a, (4-(methylthio)phenyl)(naphthalen-1-yl)methanone O-2-(piperidin-1-yl)ethyl oxime oxalate] |  | > 20 | > 20 | 5.8 | 5.8 | > 18 | 15 | 15 | 27 | > 25 |
|  |  |  |  | 7 | 8 | 9.5 | 7.2 | CSc1ccc(/C(=N/OCCCN(C)C)c2cccc3ccccc23)cc1 [Compound 5m, (4-(methylthio)phenyl)(naphthalen-1-yl)methanone O-3-(dimethylamino)propyl oxime oxalate] |  | 7.78 | 7.78 | 4.8 | 4.8 | > 15 | > 25 | > 25 | > 10 | > 25 |
|  |  |  |  | > 50 | 6.5 | 10 | 20 | CSc1ccc(/C(=N/OCCCN2CCC(C)CC2)c2cccc3ccccc23)cc1 [Compound 7c, (4-(methylthio)phenyl)(naphthalen-1-yl)methanone O-3-(4-methylpiperidin-1-yl)propyl oxime oxalate] |  | > 50 | > 50 | 5.73 | 5.73 | > 25 | 21 | 21 | 19 | > 25 |
|  |  |  |  |  |  |  |  | CC[C@@H](C(=O)[C@@H](C)[C@@H](O)[C@H](C)[C@@H]1O[C@@H]([C@@H](CC)C(=O)O)CC[C@@H]1C)[C@H]1O[C@]2(C=C[C@@H](O)[C@]3(CC[C@@](C)([C@H]4CC[C@](O)(CC)[C@H](C)O4)O3)O2)[C@H](C)C[C@@H]1C [salinomycin] | 5.42% |  |  |  |  |  |  |  |  |  |
